According to US6770673B1, “Therapeutic uses of arglabin in combination with other chemotherapy agents” (priority 1997, dated 2004):

Tests used:
M-1 Sarcoma = experiment: Inhibition of tumor growth in implanted tumors; format: in vivo, mice and rats
Worker's carcinosarcoma = experiment: Inhibition of tumor growth in implanted tumors; format: in vivo, mice and rats
Geren's carcinosarcoma = experiment: Inhibition of tumor growth in implanted tumors; format: in vivo, mice and rats
Sarcoma-45 = experiment: Inhibition of tumor growth in implanted tumors; format: in vivo, rats
[1] = test system: Alveolar Cancer of the liver; experiment: Inhibition of tumor growth in implanted tumors; format: in vivo, mice and rats
Pliss lymphosarcoma = experiment: Inhibition of tumor growth in implanted tumors; format: in vivo, rats
[2] = test system: Pliss Lymphosarcoma resistant to prospidine; experiment: Inhibition of growth of resistant tumour strains; duration of life and metastasis; format: in vivo, rats
[3] = test system: Sarcoma-45 resistant to 5-fluorouracil; experiment: Inhibition of growth of resistant tumour strains; format: in vivo, rats
[4] = test system: Pliss Lymphosarcoma resistant to rubidomycin; experiment: Inhibition of growth of resistant tumour strains; format: in vivo, rats; conditions: dose 30 mg/kg
[5] = test system: Sarcoma-45 resistant to sarcolysin; experiment: Inhibition of growth of resistant tumour strains; format: in vivo, rats; conditions: dose 30 mg/kg
Leucemia P-388 = experiment: Implanted leukemia, inhibition / survival; format: in vivo, mice and rats
L-1210 = experiment: Implanted leukemia, survival; format: in vivo, mice and rats; conditions: dose 30 mg/kg
PC-1 = experiment: Inhibition of tumor growth in implanted tumors; format: in vivo, mice and rats; conditions: dose 30 mg/kg
immune system = experiment: Indices of patients' immunity, rozette forming and phagocytosis methods (Table X); format: in vivo, human
Description: The indices of immune system were determined using rozette forming and phagocytosis methods. […] Eleven indices of cellular and humoral immunity were measured from each patient in order to evaluate immune status. The following indices were determined on 0.05 ml of peripheral blood: absolute and relative amount of T- and B-lymphocytes, amount of non-differentiated “zero” cells, adhesion and phagocyte activity of neutrophils, hemogram, level of serum immunoglobulins. Indices were determined before treatment, on days 2, 5 and 14 of treatment, and after treatment.
Mean values of immunological indices were evaluated with regression analysis. Functional conditions of the immune system were estimated using integral indices such as a mean intensity (correlation) expressed in relative units.

Sarcoma-37 = experiment: Inhibition of tumor growth in implanted tumors; format: in vivo, mice and rats; conditions: dose 2 mg/kg

SMILES: CC1=CCC23OC2(C)CCC2C(C)C(=O)OC2C13 (centres unmarked) [11,13-dihydroarglabin (16), 11,13 dihydroarglabin]
- Inhibition of Tumour Growth, % - M-1 Sarcoma (M-1 Sarcoma; dose 30 mg/kg): 65.5%
- Inhibition of Tumour Growth, % - Worker's carcinosarcoma (Worker's carcinosarcoma; dose 30 mg/kg): 46.4%
- Inhibition of Tumour Growth, % - Geren's carcinosarcoma (Geren's carcinosarcoma; dose 30 mg/kg): 84.4%
- Inhibition of Tumour Growth, % - Sarcoma-45 (Sarcoma-45; dose 30 mg/kg): 64.1%
- Inhibition of Tumour Growth, % - Alveolar Cancer of the liver ([1]; dose 30 mg/kg): 68.7%
- Inhibition of Tumour Growth, % - Pliss lymphosarcoma (Pliss lymphosarcoma; dose 30 mg/kg): 68.0%

SMILES: C=C1C(=O)OC2C1CCC(C)(O)C1C3OC3C(C)(O)C21 (stereo not drawn) [Anobin (19), 2α,3α-epoxy-4α,10α-dioxy-5,7α(H), 60β(H)-guai-11(13)-en-6,12-olide]
- Inhibition of Tumour Growth, % - Geren's carcinosarcoma (Geren's carcinosarcoma; dose 20-30 mg/kg): 85%
- Inhibition of Tumour Strains Growth, % - Resistant Forms - Pliss Lymphosarcoma to prospidine ([2]; dose 20-30 mg/kg): 95%
- Inhibition of Tumour Strains Growth, % - Resistant Forms - Sarcoma-45 to 5-fluorouracil ([3]; dose 20-30 mg/kg): 13.2%
- Inhibition of Tumour Growth, % - Pliss lymphosarcoma (Pliss lymphosarcoma; dose 20-30 mg/kg): 60.0%

SMILES: C=C1C(=O)O[C@@H]2[C@H]3C(C)=CC[C@@]34O[C@@]4(C)CC[C@@H]12 [Arglabin (1), 1(R), 10(S)-epoxy-5(S), 6(S), 7(S)-guaia-3(4), 11(13)-diene-6,12-olide]
- Inhibition of Tumour Growth, % - M-1 Sarcoma (M-1 Sarcoma; dose 30 mg/kg): 55.6%
- Inhibition of Tumour Growth, % - Worker's carcinosarcoma (Worker's carcinosarcoma; dose 30 mg/kg): 41.1%
- Inhibition of Tumour Growth, % - Geren's carcinosarcoma (Geren's carcinosarcoma; dose 30 mg/kg): 48.0%
- Inhibition of Tumour Strains Growth, % - Resistant Forms - Pliss Lymphosarcoma to rubidomycin [4]: 44.1%
- Inhibition of Tumour Strains Growth, % - Resistant Forms - Sarcoma-45 to sarcolysin [5]: 59.7%
- Leucemia P-388 PALT - increase in survival (Leucemia P-388; dose 30 mg/kg): +43.0%
- L-1210 - increase in survival (L-1210): +34.1%
- Inhibition of Tumour Strains Growth, % - Resistant Forms - Pliss Lymphosarcoma to prospidine ([2]; dose 30 mg/kg): 31.0%
- Inhibition of Tumour Growth, % - Sarcoma-45 (Sarcoma-45; dose 30 mg/kg): 23.0%
- Inhibition of Tumour Growth, % - PC-1 (PC-1): 32.1%
- Inhibition of Tumour Growth, % - Alveolar Cancer of the liver ([1]; dose 30 mg/kg): 32.1%
- Adhesion, N/ph (immune system; human, in vivo): 42.40 ± 1.72
- Non differentiated lymphocytes, % (immune system; human, in vivo): 26.00 ± 2.21%
- T-lymphocytes, % (immune system; human, in vivo): 52.00 ± 1.42%
- Eosinophil (immune system; patients, hemogram, after treatment (before treatment 2.72 ± 0.71)): 3.35 ± 1.30
- Neutrophils, % (immune system; patients, hemogram, after treatment (before treatment 4.72 ± 0.91)): 5.45 ± 0.79%
- Monocytes (immune system; patients, hemogram, after treatment (before treatment 5.28 ± 2.48)): 4.45 ± 0.44
- Lymphocytes (immune system; patients, hemogram, after treatment (before treatment 25.52 ± 2.02)): 23.15 ± 1.7
- Segmentation nucleus (immune system; patients, hemogram, after treatment (before treatment 61.68 ± 45.0)): 63.05 ± 1.79
- B-lymphocytes, absolute (immune system; patients, peripheral blood, after treatment (before treatment 0.29 ± 0.05)): 0.45 ± 0.07
- T-lymphocytes, absolute (immune system; patients, peripheral blood, after treatment (before treatment 0.72 ± 0.08)): 1.14 ± 0.17
- D-phag, abs (immune system; patients, peripheral blood, after treatment (before treatment 1.69 ± 0.26)): 2.32 ± 0.19
- Leukocytes, 10^9/l (immune system; patients, peripheral blood, after treatment (before treatment 5.97 ± 0.60)): 9.14 ± 0.61 10^9/l
- T suppressor, % (immune system; patients, peripheral blood, after treatment (before treatment 10.48 ± 1.60)): 10.50 ± 0.95%
- B-lymphocytes, % (immune system; patients, peripheral blood, after treatment (before treatment 19.12 ± 1.02)): 18.50 ± 10.0%
- T helper cells, % (immune system; patients, peripheral blood, after treatment (before treatment 39.12 ± 1.25)): 45.30 ± 1.26%
- D-phag., % (immune system; patients, peripheral blood, after treatment (before treatment 41.36 ± 0.95)): 48.1 ± 0.93%
- Immunoglobulins M (immune system; patients, serum, after treatment (before treatment 1.36 ± 0.03)): 1.53 ± 0.03 g/L
- Immunoglobulins A (immune system; patients, serum, after treatment (before treatment 1.48 ± 0.02)): 1.97 ± 0.08 g/L
- Immunoglobulins G (immune system; patients, serum, after treatment (before treatment 14.33 ± 0.43)): 17.91 ± 0.41 g/L
- Inhibition of Tumour Growth, % - Pliss lymphosarcoma (Pliss lymphosarcoma; dose 30 mg/kg): 57.6%

SMILES: COc1cc2c(c(OC)c1OC)-c1ccc(OC)c(=O)cc1[C@@H](NC(C)=O)CC2 [Colchicine, colchicine, reference compound]
- Inhibition of Tumour Growth, % - M-1 Sarcoma (M-1 Sarcoma; dose 2 mg/kg): 14.9%
- Inhibition of Tumour Growth, % - Worker's carcinosarcoma (Worker's carcinosarcoma; dose 2 mg/kg): 30.1%
- Inhibition of Tumour Growth, % - Geren's carcinosarcoma (Geren's carcinosarcoma; dose 2 mg/kg): 32.4%
- Inhibition of Tumour Growth, % - Leucemia P-388 PALT (Leucemia P-388; dose 2 mg/kg): 31.2%
- Inhibition of Tumour Growth, % - Sarcoma-45 (Sarcoma-45; dose 2 mg/kg): 23.4%
- Inhibition of Tumour Growth, % - Sarcoma-37 (Sarcoma-37): 36.7%
- Inhibition of Tumour Growth, % - Alveolar Cancer of the liver ([1]; dose 2 mg/kg): 29.1%
- Inhibition of Tumour Growth, % - Pliss lymphosarcoma (Pliss lymphosarcoma; dose 2 mg/kg): 54.4%

SMILES: C=C1C(=O)OC2C1CCC1(C)OC13CC(Br)C(C)(Br)C23 (centres unmarked) [Dibromoarglabin (5), 3,4 Dibromoarglabin]
- Inhibition of Tumour Growth, % - Worker's carcinosarcoma (Worker's carcinosarcoma; dose 50 mg/kg): 17.1%
- Inhibition of Tumour Growth, % - Geren's carcinosarcoma (Geren's carcinosarcoma; dose 50 mg/kg): 90.0%
- Inhibition of Tumour Growth, % - Leucemia P-388 PALT (Leucemia P-388; dose 50 mg/kg): 46.9%
- Inhibition of Tumour Growth, % - Sarcoma-45 (Sarcoma-45; dose 50 mg/kg): 74.2%
- Inhibition of Tumour Strains Growth, % - Resistant Forms - Sarcoma-45 to 5-fluorouracil ([3]; dose 50 mg/kg): 46.3%
- Inhibition of Tumour Growth, % - Alveolar Cancer of the liver ([1]; dose 50 mg/kg): 69.0%
- Inhibition of Tumour Growth, % - Pliss lymphosarcoma (Pliss lymphosarcoma; dose 50 mg/kg): 51.0%
